Results: a melting point compilation (Tetko et al.; mined from patent text by program, amines drawn as free bases though some values may be those of a salt)

melting point [°C]	Compound
94 to 96	CC1C(=O)Oc2c1cccc2S(=O)(=O)c1ccccc1Cl (stereo not given)
68 to 69.5	Cc1cc(OCCCCOCc2ccccc2)cc(C)c1N=Nc1ccc([N+](=O)[O-])cc1
41 to 42.5	C#CCCCCNC(=O)C(F)(F)F
107 to 108	C#CCOc1ccc(CCNC(=O)C(=NOC)c2ccc(Cl)c(Cl)c2)cc1OC
205	Cc1cn(C)c(C(=O)O)c1-c1ccccc1[N+](=O)[O-]
88	Cc1ncn(C)c1-c1nc(C2CC2)no1
82 to 84	Cc1coc2cc(N3CCCCC3)c(Cl)cc12
144 to 146	O=C(NC(=S)Nc1cccc(Oc2ccccc2)c1)c1cccnc1
109 to 110	CS(=O)(=O)c1ccc(Oc2ccc(Cc3ccccc3)cc2)cc1
144 to 147	CC(C)N(C)c1nc(Nc2cccc(NS(C)(=O)=O)c2)nc2[nH]cnc12
219 to 221	CSc1ccc(-c2nc(SC)c(C#N)c(=O)n2-c2ccc(F)cc2)cc1
156	CC(C)C1(C)N=C(c2ncc(C3OCCO3)cc2C(=O)O)NC1=O (stereo not given)
102 to 104	CN(C)c1ccc(OCC(=O)N[C@@H](CC(N)=O)C(=O)N[C@@H](Cc2ccccc2)[C@H](O)C(=O)N2CCC[C@H]2C(=O)NC(C)(C)C)cc1
160 to 162	CN(OCC(=O)O)C(=S)NC(c1ccccc1)c1ccccc1
149 to 151	O=C(CO)NC1CCC(CC2CCC(NC(=O)CO)CC2)CC1 (stereo not given)
180	CC(C)(O)c1onc(-c2ccccc2Cl)c1C(=O)c1nnn(Cc2cc(F)cc(C(F)(F)F)c2)c1-c1cccnc1
153 to 156	CC1CC(N)(C(=O)O)c2cc(F)ccc2O1 (mixture of isomers)
71	C#Cc1ccc(C2CCC(C3CCC(CCC)CC3)CC2)cc1 (stereo not given)
308 to 310	Cn1c(=O)n(Cc2ccc(Cl)cc2Cl)c(=O)c2ccc(C(=O)O)cc21
156 to 159	O=C(O)c1ccc(CNC(=O)C(CS)Cc2ccccc2)cc1 (stereo not given)
125 to 127	CCCCCN1C(=O)C(CO)(c2cc3c(cc2O)OCO3)c2ccccc21 (stereo not given)
216 to 218	COC(=O)c1cc(O)c(N=Nc2ccccc2)c(O)c1
124 to 127	COc1ccc(CC2=Cc3ncccc3Nc3cccnc32)cc1
155 to 158	CC1=C(C(=O)OC(C)C)C(c2ccc(F)cc2Cl)N=C(c2c(F)cccc2F)N1 (stereo not given)

melting point [°C]	Compound
155 to 158	CN1C(=O)C(Br)=C(c2cn(C)c3ccccc23)C1=O
138 to 140	NC(=O)c1cn(C(CO)CCc2cccc3ccccc23)cn1 (stereo not given)
37 to 39	COC(=O)C(C)c1cccc2c(=O)c3ccccc3ccc12 (stereo not given)
108 to 110	CN(C)N=Nc1ccsc1C(=O)O
125 to 127	CS(=O)(=O)Oc1cnc2cc(OC(F)(F)F)ccc2c1O
108 to 110	CC(=O)OCC(=O)NCc1cccc2c1C(=O)N(C1CCC(=O)NC1=O)C2=O (stereo not given)
181	CC(=O)N[C@@H](C)COc1cc2oc(-c3ccc(OC[C@H]4CC4(F)F)c(F)c3)nc2cn1
185 to 187	COC(=O)C1=Cc2cc(-c3ccc4c(c3)OCO4)ccc2S(=O)(=O)CC1
156	COc1cc(OC)cc(C(C)N(C)CCCOc2ccc(S(=O)(=O)c3c(C(C)C)c4ccccc4n3C)cc2)c1 (stereo not given)
235 to 238	Cc1cc(Nc2ccccc2C(=O)O)n(Cc2ccncc2)n1
208 to 209	N#Cc1c(Br)c(Br)n(O)c1-c1ccc(Cl)cc1
155 to 156	CCc1ccc(N)c(CS(=O)c2nc3ccccc3[nH]2)c1 (stereo not given)
202 to 203	O=C1N[C@H](Cc2ccc(C(F)(F)F)cc2)[C@H](c2cccc3ccccc23)O1 (racemic)
217 to 218	CCCCOCCOc1ccc(-c2cc3c4c(c2)CCN4CCCC(C(=O)O)=C3)cc1
148 to 150	NC(=O)c1ccc(C(F)(F)F)c(Br)c1
77 to 78	O=c1n(CCCCl)nc2n1-c1ccccc1OC2
239 to 240	O=Cc1c(O)cccc1OCc1ccc(C(=O)O)cc1
146 to 147	COc1ccc2c(c1)C(C)(C)NC2=O
134 to 140	CCC(C)(CC)C1=NN=C(NC(=O)c2c(OC)cccc2OC)SC1
241 to 242	N#Cc1ccc2cc(C(N)=O)[nH]c2c1
160 to 161	Fc1cccc2onc(Nc3ccncc3)c12
43.2	Cc1c(F)c(F)c(COC(=O)[C@@H]2[C@@H](C=O)C2(C)C)c(F)c1F
149 to 150	Cn1nnnc1-c1ccc2[nH]ccc2c1
197 to 200	COC(=O)c1cc2ccccc2n1C1=CC(C)(C)Oc2ccc(C#N)cc21

melting point [°C]	Compound
211 to 212	CCOC(=O)C1=Cc2cc(F)c(Cl)cc2N(Cc2ccccc2)C1
69 to 70	CNc1cncc(C(F)(F)F)c1
75 to 78	COc1nc2cc(F)cc(CN=[N+]=[N-])c2nc1OC
118 to 120	N#CCc1cc(Br)ccc1Sc1ccccc1
258 to 260	CC1(C)CCc2c(N3CCOCC3)nc3sc4c(NCc5ccc(S(N)(=O)=O)cc5)ncnc4c3c2C1
130 to 132	O=C(O)CN1CCNCC1
220 to 224	Cc1cc2c(cc1C)CC(=O)NC=C2
74 to 76	Cc1oc(-c2ccco2)nc1COc1ccc(Cc2nc(-c3ccccc3)c(CCC(=O)O)o2)cc1
84 to 87	CC(=O)n1c(C)c(-c2ccc(F)cc2)c2cccnc21
125 to 127	CCCCCc1ccc(Oc2cccc(C=C3SC(=S)NC3=O)c2)cc1
226 to 228	CN1CCN(c2ccnc3c(NC(=O)c4ccccc4[N+](=O)[O-])cccc23)C1=O
50 to 51	O=C(c1ccccc1)C(F)c1ccccc1 (stereo not given)
148 to 151	CCC(=O)NCC1CC1c1cccc2nc(C(F)(F)F)cn12 (stereo not given)
195 to 200	COc1ccc(N2C(=O)N(c3cccc(C#N)c3)c3nc(Nc4cccc(CCO)c4)ncc3C2C)cc1 (stereo not given)
223 to 226	Oc1nc(S)n(-c2ccccc2)n1
82	C=CCS(=O)c1ncc(Cl)cn1 (stereo not given)
179	COc1ccc(CNc2nc(-c3ccc(C(=O)O)cc3)nc3c2c2c(n3C(C)c3ccccc3)CCCC2)cc1Cl (stereo not given)
32 to 34	CCOC(=O)c1sc(OCC)nc1-c1ccccc1
266 to 267	CC(C)(c1ccc(C(=O)Nc2cn3cc(Cl)ccc3n2)cc1)c1nnn[nH]1
176 to 177	COC(=O)NC1=NCC(c2ccccc2)CN1C (stereo not given)
81 to 83	O=C(OC1CCCCC1=O)c1ccccc1 (stereo not given)
110 to 111	N#CC(c1ccccc1)c1nc(-c2ccncc2)cs1 (stereo not given)
245 to 250	Cn1nc(-c2cccc(-n3ncc4cc(C(C)(C)C)cc(F)c4c3=O)c2CO)cc(Nc2ccn(C[C@@H](O)CO)n2)c1=O
210 to 212	CCCCC=C1SC(=S)N(N=c2sc3ccccc3s2)C1=O

Compound	melting point [°C]
CN1Cc2nc[nH]c2C[C@@H]1C(=O)c1ccccc1	98
Cc1ccc2nc(NC3=NCCN3)[nH]c2c1C	199 to 204
COCCOc1c(C)cc(C#CC2(O)CN3CCC2CC3)cc1C (stereo not given)	120
